Assay results from patent US8680076B2, “Methods of treatment, improvement and prevention using haloaryl substituted aminopurines” (Signal Pharmaceuticals, LLC, priority 2010, dated 2014).
“Also recorded” adds a separate entry of the source.

Test system: phospho c-Jun (JNK) in human skin
Experiment: UVB-irradiated human skin, phospho c-Jun IHC (3-way crossover study)
Assay type: in vivo
Conditions: for median subjective score of phospho c-Jun: scale 0-4, placebo score 4
Description: The inhibitory effect of JNKi-1 on JNK was evaluated by assessing the status of the downstream substrate c-Jun (“cJun”) and phospho-c-Jun (or “p-cJun”) following UV irradiation of human skin.
The study was designed as randomized, double blind, placebo controlled, multiple dose, 3-way crossover study. Fifteen subjects were randomized to one of 3 sequences (5 subjects per sequence) as outlined below (see Table 3). There was a 7-day to 10 day washout period (no more than 14 days) from the last dose of the previous period to the first dose of the next period.
Fifteen patients enrolled, 14 completed the study and were included in the PD and PK analyses; all were healthy Caucasian male volunteers with Fitzpatrick skin type 2. The mean age was […] (20-49 years) and weight was 81 kg (64-96 kg). On the evening of Day-1, patients started fasting (at least an 8-hour fast prior to dosing on Day 1). Subjects received treatment A, B or C in Periods 1 to 3 under fasting conditions in an order based on the randomization scheme. Subjects went through the same procedures (except for the change in treatment) for all 3 periods, with the required washout in between periods. No strenuous activities were permitted during confinement. All efforts were made to keep activities, environment, food, procedures, and schedule between treatment periods identical.
On Day 6, subjects received a 2×MED UV dose to two sites on the buttock. One punch biopsy (approximately 3 mm in diameter by 0.8 mm in depth) was taken from one of the two UV irradiated sites. The punch biopsies were taken at 8 (±5 minutes) hours post UV exposure on Day 6.
Skin specimens from the biopsies was analyzed for phospho c-Jun and total c-Jun using IHC assay. Phospho c-Jun was quantified using a 0-4 subjective grading scales and/or objective scoring using an automated system, i.e. a laser scanning cytometer (LSC), evaluating the integrated intensity of staining measured optically.
Biopsies were analyzed following the procedures described below to evaluate phospho c-Jun and c-Jun expression using IHC assay. The method employed to assess JNK activation was a two antibody IHC assay that employed a primary antibody, directed against the target, and a secondary antibody conjugated with a chromogenic enzyme. Thus, the method was a two-step immunohistochemical assay designed to interrogate the target, c-Jun and phospho c-Jun. Any changes in JNK activity were measurable in the amounts of these target molecules, c-Jun and phospho c-Jun. The secondary antibody-reporter conjugate deposited a red color when incubated with the substrate reaction mix, thus marking the location of the primary antibody target complex. The red color was then recorded with standard bright-field illumination using a Nikon microscope. The microscope images were then photographed and electronic images were scored (blinded) by three independent and trained scorers using the following guidelines. A score of 0 indicated staining of 0-19% of the epithelial keratinocyte nuclei; a score of 1 indicated staining of 20-39% of the epithelial keratinocyte nuclei; a score of 2 indicated staining of 40-59% of the epithelial keratinocyte nuclei; a score of 3 indicated staining of 60-79% of the epithelial keratinocyte nuclei; and a score of 4 indicated staining of 80-100% of the epithelial keratinocyte nuclei. FIG. 21 depicts representative immunostaining for the respective scores.
For each tissue, a count of nuclei in the epithelial layer was obtained. All phospho c-Jun or c-Jun positive nuclei were counted as well as their integral (intensity). A score was calculated for each: score=(p-cJun or cJun positive nuclei×average Intensity)/Total nuclei.

For O[C@H]1CC[C@H](Nc2ncc3nc(Nc4c(F)cc(F)cc4F)n([C@H]4CCOC4)c3n2)CC1 [JNKi-1, 4-((9-((3S)-tetrahydro-3-furanyl)-8-((2,4,6-trifluorophenyl)amino)-9H-purin-2-yl)amino)-trans-cyclohexanol], the “patients with reduced phospho c-Jun, subjective scoring” value (75 mg QD x 6 days) was 57%, the “patients with reduced phospho c-Jun, subjective scoring” value (75 mg QD x 6 days, 2xMED UVB, biopsy 8 hours post UV) was 8/14 and the “median subjective score of phospho c-Jun” value (75 mg QD x 6 days) was 3. The “frequency of high phospho c-Jun subjective scores” value (75 mg and 200 mg vs placebo) was “fewer subjects had high p-cJun scores; also recorded: fewer patients had high scores”, the “phospho c-Jun by laser scanning cytometry (LSC) analysis” value (75 mg or 200 mg) was “Decrease in phospho c-Jun was confirmed” and the “odds ratio, phospho c-Jun scores 0, 1, 2 vs. scores 3, 4 (logistic regression)” value (75 mg vs. placebo) was 10.96. The “patients with inhibited phospho c-Jun, subjective scoring” value (200 mg QD x 6 days) was 78%, the “patients with inhibited phospho c-Jun, subjective scoring” value (200 mg QD x 6 days, 2xMED UVB, biopsy 8 hours post UV) was 11/14 and the “median subjective score of phospho c-Jun” value (200 mg QD x 6 days) was 1. For the same molecule, the “odds ratio, phospho c-Jun scores 0, 1, 2 vs. scores 3, 4 (logistic regression)” value (200 mg vs. placebo) was 41.89, the “elevation of phospho c-Jun induced by the UVB irradiation” value (oral, about 75 mg to about 200 mg, in a majority of patients) was “partially or completely inhibited” and the “phospho c-Jun immunostaining, percentage of positive epithelial nuclei, Patient 15” value (versus placebo) was “significantly decreased”.
